From ChEMBL document CHEMBL6153048, “Synthesis and pharmacological evaluation of natural product diphyllin derivatives against head and neck squamous cell carcinoma” (Eur J Med Chem, 2025)

Key:
CAL-27 [1] = assay: Antiproliferative activity against human CAL-27 cells assessed as inhibition rate at 0.1 uM incubated for 72 hrs by MTT assay relative to control; type: functional
[2] = Antiproliferative activity against human HN-6 cells assessed as inhibition rate at 0.1 uM incubated for 72 hrs by MTT assay relative to control; type: functional
[3] = Antiproliferative activity against human WSU HN-30 cells assessed as inhibition rate at 0.1 uM incubated for 72 hrs by MTT assay relative to control; type: functional; conditions: WSU-HN30
SCC-9 [4] = assay: Antiproliferative activity against human SCC-9 cells assessed as inhibition rate at 0.1 uM incubated for 72 hrs by MTT assay relative to control; type: functional
SCC-25 [5] = assay: Antiproliferative activity against human SCC-25 cells assessed as inhibition rate at 0.1 uM incubated for 72 hrs by MTT assay relative to control; type: functional
[6] = Antiproliferative activity against human L02 cells assessed as inhibition rate at 0.1 uM incubated for 72 hrs by MTT assay relative to control; type: toxicity, cell-based
CAL-27 [7] = assay: Cytotoxicity against human CAL-27 cells incubated for 72 hrs by MTT assay; type: functional, cell-based; conditions: CAL-27, 72 h
[8] = Cytotoxicity against human HN-6 cells incubated for 72 hrs by MTT assay; type: functional, cell-based; conditions: HN-6, 72 h
[9] = Cytotoxicity against human […] incubated for 72 hrs by MTT assay; type: functional, cell-based; conditions: WSU-HN30, 72 h
SCC-9 [10] = assay: Cytotoxicity against human SCC-9 cells incubated for 72 hrs by MTT assay; type: functional, cell-based; conditions: SCC-9, 72 h
SCC-25 [11] = assay: Cytotoxicity against human SCC-25 cells incubated for 72 hrs by MTT assay; type: functional, cell-based; conditions: SCC-25, 72 h
[12] = Cytotoxicity against human L02 cells incubated for 72 hrs by MTT assay; type: toxicity, cell-based

COc1cc2c(OCCN)c3c(c(-c4ccc5c(c4)OCO5)c2cc1OC)C(=O)OC3
inhibition at 0.1 µM (CAL-27 [1]): 6.31%
inhibition at 0.1 µM [2]: 28.2%
inhibition at 0.1 µM [3]: 18.9%
inhibition at 0.1 µM (SCC-9 [4]): 30.4%
inhibition at 0.1 µM (SCC-25 [5]): 10.8%
inhibition at 72 h, 0.1 µM [6]: 7.89%

COc1cc2c(OCCOCCOCCN)c3c(c(-c4ccc5c(c4)OCO5)c2cc1OC)C(=O)OC3
inhibition at 0.1 µM (CAL-27 [1]): 67.2%
inhibition at 0.1 µM [2]: 29.5%
inhibition at 0.1 µM [3]: 25.2%
inhibition at 0.1 µM (SCC-9 [4]): 31.5%
inhibition at 0.1 µM (SCC-25 [5]): 51.1%
inhibition at 72 h, 0.1 µM [6]: 18.2%
IC50 (CAL-27 [7]): 40.6 nM
IC50 [8]: 94.6 nM
IC50 [9]: 123 nM
IC50 (SCC-9 [10]): 130 nM
IC50 (SCC-25 [11]): 92.6 nM
IC50 at 72 h [12]: 7870 nM

COc1cc2c(OCCOCCN)c3c(c(-c4ccc5c(c4)OCO5)c2cc1OC)C(=O)OC3
inhibition at 0.1 µM (CAL-27 [1]): 45.6%
inhibition at 0.1 µM [2]: 50.8%
inhibition at 0.1 µM [3]: 34.2%
inhibition at 0.1 µM (SCC-9 [4]): 34.9%
inhibition at 0.1 µM (SCC-25 [5]): 28.9%
inhibition at 72 h, 0.1 µM [6]: 18.3%
IC50 (CAL-27 [7]): 101 nM
IC50 [8]: 185 nM
IC50 [9]: 144 nM
IC50 (SCC-9 [10]): 135 nM
IC50 (SCC-25 [11]): 85 nM
IC50 at 72 h [12]: > 10000 nM

COc1cc2c(O[C@@H]3O[C@@H]4CO[C@@H](c5cccc(C(F)(F)F)c5)O[C@H]4[C@H](O)[C@H]3O)c3c(c(-c4ccc5c(c4)OCO5)c2cc1OC)C(=O)OC3
inhibition at 0.1 µM (CAL-27 [1]): 37.4%
inhibition at 0.1 µM [2]: 60.6%
inhibition at 0.1 µM [3]: 40.9%
inhibition at 0.1 µM (SCC-9 [4]): 37.5%
inhibition at 0.1 µM (SCC-25 [5]): 33.6%
inhibition at 72 h, 0.1 µM [6]: 9.53%

COc1cc2c(NC(=O)C(F)(F)[C@]3(O)O[C@@H]4CO[C@@H](c5ccsc5)O[C@H]4[C@H](O)[C@H]3O)c3c(c(-c4ccc5c(c4)OCO5)c2cc1OC)C(=O)OC3
inhibition at 0.1 µM (CAL-27 [1]): 25.8%
inhibition at 0.1 µM [2]: 14.5%
inhibition at 0.1 µM [3]: 14%
inhibition at 0.1 µM (SCC-9 [4]): 16.6%
inhibition at 0.1 µM (SCC-25 [5]): 23.6%
inhibition at 72 h, 0.1 µM [6]: 3.32%

COc1cc2c(O[C@@H]3O[C@@H]4CO[C@@H](C5CCCC5)O[C@H]4[C@H](O)[C@H]3O)c3c(c(-c4ccc5c(c4)OCO5)c2cc1OC)C(=O)OC3
inhibition at 0.1 µM (CAL-27 [1]): 8.02%
inhibition at 0.1 µM [2]: 54.2%
inhibition at 0.1 µM [3]: 40.5%
inhibition at 0.1 µM (SCC-9 [4]): 42%
inhibition at 0.1 µM (SCC-25 [5]): 49.1%
inhibition at 72 h, 0.1 µM [6]: 9.37%

COc1cc2c(NC(=O)C(F)(F)[C@]3(OCc4ccccc4)O[C@H](COCc4ccccc4)[C@@H](OCc4ccccc4)[C@H](OCc4ccccc4)[C@H]3OCc3ccccc3)c3c(c(-c4ccc5c(c4)OCO5)c2cc1OC)C(=O)OC3
inhibition at 0.1 µM (CAL-27 [1]): 26.1%
inhibition at 0.1 µM [2]: 12.7%
inhibition at 0.1 µM [3]: 8.5%
inhibition at 0.1 µM (SCC-9 [4]): 14.7%
inhibition at 0.1 µM (SCC-25 [5]): 17.8%
inhibition at 72 h, 0.1 µM [6]: 3.29%

COc1cc2c(O[C@@H]3O[C@@H]4CO[C@@H](c5ccc(C)s5)O[C@H]4[C@H](O)[C@H]3O)c3c(c(-c4ccc5c(c4)OCO5)c2cc1OC)C(=O)OC3
inhibition at 0.1 µM (CAL-27 [1]): 32.4%
inhibition at 0.1 µM [2]: 57.2%
inhibition at 0.1 µM [3]: 40.1%
inhibition at 0.1 µM (SCC-9 [4]): 46.2%
inhibition at 0.1 µM (SCC-25 [5]): 41%
inhibition at 72 h, 0.1 µM [6]: 9.5%

COc1cc2c(OCCOCCNC(=O)C3(F)CNC3)c3c(c(-c4ccc5c(c4)OCO5)c2cc1OC)C(=O)OC3
inhibition at 0.1 µM (CAL-27 [1]): 9.95%
inhibition at 0.1 µM [2]: 10.8%
inhibition at 0.1 µM [3]: 10.7%
inhibition at 0.1 µM (SCC-9 [4]): 32.6%
inhibition at 0.1 µM (SCC-25 [5]): 19.5%
inhibition at 72 h, 0.1 µM [6]: 3.51%

COc1cc2c(OCCOCCNC(=O)C(F)(F)[C@]3(O)O[C@H](CO)[C@@H](O)[C@H](O)[C@H]3O)c3c(c(-c4ccc5c(c4)OCO5)c2cc1OC)C(=O)OC3
inhibition at 0.1 µM (CAL-27 [1]): 1.73%
inhibition at 0.1 µM [2]: 4.3%
inhibition at 0.1 µM [3]: 8.25%
inhibition at 0.1 µM (SCC-9 [4]): 13.9%
inhibition at 0.1 µM (SCC-25 [5]): 10.2%
inhibition at 72 h, 0.1 µM [6]: 1.74%

COc1cc2c(O[C@@H]3O[C@@H]4CO[C@@H](C5CCOCC5)O[C@H]4[C@H](O)[C@H]3O)c3c(c(-c4ccc5c(c4)OCO5)c2cc1OC)C(=O)OC3
inhibition at 0.1 µM (CAL-27 [1]): 35.5%
inhibition at 0.1 µM [2]: 58.9%
inhibition at 0.1 µM [3]: 28.9%
inhibition at 0.1 µM (SCC-9 [4]): 35.4%
inhibition at 0.1 µM (SCC-25 [5]): 24.6%
inhibition at 72 h, 0.1 µM [6]: 6.66%

COc1cc2c(NC(=O)C(F)(F)[C@]3(O)O[C@H](CO)[C@@H](O)[C@H](O)[C@H]3O)c3c(c(-c4ccc5c(c4)OCO5)c2cc1OC)C(=O)OC3
inhibition at 0.1 µM (CAL-27 [1]): 27.6%
inhibition at 0.1 µM [2]: 13.1%
inhibition at 0.1 µM [3]: 12.3%
inhibition at 0.1 µM (SCC-9 [4]): 19.4%
inhibition at 0.1 µM (SCC-25 [5]): 28.2%
inhibition at 72 h, 0.1 µM [6]: 4.58%

COc1cc2c(OCCOCCNC(=O)C3CNCC(F)(F)C3)c3c(c(-c4ccc5c(c4)OCO5)c2cc1OC)C(=O)OC3 (stereo not drawn)
inhibition at 0.1 µM (CAL-27 [1]): 2.03%
inhibition at 0.1 µM [2]: 10.2%
inhibition at 0.1 µM [3]: 11.7%
inhibition at 0.1 µM (SCC-9 [4]): 25.6%
inhibition at 0.1 µM (SCC-25 [5]): 23.2%
inhibition at 72 h, 0.1 µM [6]: 10.6%

COc1cc2c(OCCOCCNC(=O)CON)c3c(c(-c4ccc5c(c4)OCO5)c2cc1OC)C(=O)OC3
inhibition at 0.1 µM (CAL-27 [1]): 33%
inhibition at 0.1 µM [2]: 18.7%
inhibition at 0.1 µM [3]: 23.5%
inhibition at 0.1 µM (SCC-9 [4]): 18.7%
inhibition at 0.1 µM (SCC-25 [5]): 31.8%
inhibition at 72 h, 0.1 µM [6]: 9.46%

COc1cc2c(OCCOCCNC(=O)[C@@H]3CCC(=O)N3)c3c(c(-c4ccc5c(c4)OCO5)c2cc1OC)C(=O)OC3
inhibition at 0.1 µM (CAL-27 [1]): 29.5%
inhibition at 0.1 µM [2]: 19.8%
inhibition at 0.1 µM [3]: 15.9%
inhibition at 0.1 µM (SCC-9 [4]): 8.65%
inhibition at 0.1 µM (SCC-25 [5]): 18.5%
inhibition at 72 h, 0.1 µM [6]: 6.04%

COc1cc2c(OCCOCCNC(=O)[C@@H]3CC(F)(F)CN3)c3c(c(-c4ccc5c(c4)OCO5)c2cc1OC)C(=O)OC3
inhibition at 0.1 µM (CAL-27 [1]): 2.62%
inhibition at 0.1 µM [2]: 22.3%
inhibition at 0.1 µM [3]: 19.9%
inhibition at 0.1 µM (SCC-9 [4]): 35.3%
inhibition at 0.1 µM (SCC-25 [5]): 41.7%
inhibition at 72 h, 0.1 µM [6]: 8.13%

COc1cc([C@@H]2c3cc4c(cc3[C@@H](O[C@@H]3O[C@@H]5CO[C@@H](C)O[C@H]5[C@H](O)[C@H]3O)[C@H]3COC(=O)[C@H]23)OCO4)cc(OC)c1O [ETOPOSIDE]
IC50 (CAL-27 [7]): 7490 nM
IC50 [8]: > 10000 nM
IC50 [9]: 1700 nM
IC50 (SCC-9 [10]): 3700 nM
IC50 (SCC-25 [11]): 693 nM
IC50 at 72 h [12]: > 10000 nM

CCC(CC)[C@@H]1OC[C@H]2O[C@@H](Oc3c4c(c(-c5ccc6c(c5)OCO6)c5cc(OC)c(OC)cc35)C(=O)OC4)[C@H](O)[C@@H](O)[C@@H]2O1
inhibition at 0.1 µM (CAL-27 [1]): 24.3%
inhibition at 0.1 µM [2]: 55.1%
inhibition at 0.1 µM [3]: 38.3%
inhibition at 0.1 µM (SCC-9 [4]): 43.2%
inhibition at 0.1 µM (SCC-25 [5]): 44.9%
inhibition at 72 h, 0.1 µM [6]: 8.83%

COc1cc2c(OCCOCCNC(=O)C3=C[C@H](O)[C@H](O)[C@@H](O)C3)c3c(c(-c4ccc5c(c4)OCO5)c2cc1OC)C(=O)OC3
inhibition at 0.1 µM (CAL-27 [1]): 31.1%
inhibition at 0.1 µM [2]: 27.2%
inhibition at 0.1 µM [3]: 16.2%
inhibition at 0.1 µM (SCC-9 [4]): 22.2%
inhibition at 0.1 µM (SCC-25 [5]): 31.4%
inhibition at 72 h, 0.1 µM [6]: 5.67%

COc1cc2c(O[C@@H]3O[C@@H]4CO[C@@H](c5ccc(SC)cc5)O[C@H]4[C@H](O)[C@H]3O)c3c(c(-c4ccc5c(c4)OCO5)c2cc1OC)C(=O)OC3
inhibition at 0.1 µM (CAL-27 [1]): 35.9%
inhibition at 0.1 µM [2]: 57.1%
inhibition at 0.1 µM [3]: 47.4%
inhibition at 0.1 µM (SCC-9 [4]): 41.1%
inhibition at 0.1 µM (SCC-25 [5]): 35.4%
inhibition at 72 h, 0.1 µM [6]: 6.84%

COc1cc2c(OCCOCCNC(=O)[C@H]3[C@@H]4CNC[C@@H]43)c3c(c(-c4ccc5c(c4)OCO5)c2cc1OC)C(=O)OC3
inhibition at 0.1 µM (CAL-27 [1]): 2.26%
inhibition at 0.1 µM [2]: 7.38%
inhibition at 0.1 µM [3]: 6.67%
inhibition at 0.1 µM (SCC-9 [4]): 17.5%
inhibition at 0.1 µM (SCC-25 [5]): 14.7%
inhibition at 72 h, 0.1 µM [6]: 3.53%
